{"source": "patent US11633457B2", "about": "“Pharmaceutical compositions comprising oncostatin m (OSM) antagonist derivatives and methods of use” (Boise State University, priority 2019, dated 2023)", "key": {"[1]": {"tested_on": "OSM-induced phosphorylation of STAT3 on Tyr-705 (pSTAT3)", "experiment": "ELISA of OSM-induced phosphorylation of STAT3 (pSTAT3) with inhibitor pretreatment", "assay_type": "cell-based, human", "conditions": "for effect on OSM induced pSTAT3 phosphorylation, initial tests: OSM with or without inhibitor pretreatment, FIG. 3; for reduction in OSM induced phosphorylation of STAT3 (pSTAT3): 10, 50, and 100 μM per the method of Example 1, FIGS. 4A and 4B; for reduction of the OSM induced increase in pSTAT3 expression: initial testing, FIG. 6", "protocol": "Therefore, the phosphyloration of various signaling pathways was assayed using an ELISA both with and without inhibitors and at various concentrations.\nAll human breast carcinoma cell lines used in this aim were purchased from the American Type Culture Collection (ATCC) or Caliper Life Sciences, and the growth of frozen cell aliquots will be initiated on a periodic basis to remove the possibility of cross-cell contamination. The cell lines were regularly tested for mycoplasma contamination by both DAPI staining and PCR. Four invasive ductal carcinoma cell lines, T47D, MCF7, MDA-MB-231 and MDA-MB-468, were used. These include the less aggressive, estrogen receptor-positive (ER+), progesterone receptor positive (PR+), HER2−, luminal T47D and MCF7-luc cell lines, as well as the triple negative breast cancer (TNBC) basal-like cell line, MDA-MB-231-LN-luc, that is metastatic in orthotopic xenografts and the less metastatic TNBC cell line MDA-MB-468. All cell lines express OSMRb, LIFRb, and gp130, as well as various levels of OSM, by RT-PCR\nAn enzyme-linked immunosorbent assay (ELISA) was used for analyzing initial OSM-induced phosphorylation of STAT3 on Tyr-705 (pSTAT3). T47D, MCF7, and MDA-MB-231 human breast cancer cells induced pSTAT3 upon stimulation with OSM (25 ng/ml) for 30 minutes. OSM-SMI-8 modified inhibitors were used to pretreat the cells in order to assay their ability to inhibit OSM-OSMR interactions. Pretreatment consisted of administering to the cells either 5, 10, 50, or 100 μM of the modified OSM-SMI-8 based inhibitor for 2 hours prior to administration of OSM."}, "[2]": {"tested_on": "OSM induced secretion of IL-6", "experiment": "ELISA of OSM induced IL-6 secretion", "assay_type": "cell-based", "conditions": "pretreatment with inhibitor; FIG. 5", "protocol": "(§1) OSM-SMI-10B was also assayed for its effect on OSM induced secretions of both VEGF and IL-6 by ELISA (FIG. 5)."}, "[3]": {"tested_on": "OSM induced secretion of VEGF", "experiment": "ELISA of OSM induced VEGF secretion", "assay_type": "cell-based", "conditions": "pretreatment with inhibitor; FIG. 5", "protocol": "as §1"}, "prostate tumor cell": {"tested_on": "prostate tumor cell", "conditions": "earlier work (U.S. Ser. No. 15/403,965); cited from earlier work"}, "STAT3, JNK, ERK, and AKT": {"tested_on": "STAT3, JNK, ERK, and AKT", "conditions": "earlier work (U.S. Ser. No. 15/403,965); cited from earlier work"}}, "data": [{"smiles": "O=C(NCc1ccccc1)c1cc(-c2ccc3c(c2)OCO3)c(-c2ccc3c(c2)OCO3)o1", "note": "[OSM-SMI-10J]", "values": [{"measurement": "effect on OSM induced pSTAT3 phosphorylation, initial tests", "setting": "[1]", "result": "inhibitory effect"}]}, {"smiles": "O=C(/C=C/c1cc(-c2ccc3c(c2)OCO3)c(-c2ccc3c(c2)OCO3)o1)c1ccccc1", "note": "[OSM-SMI-10C]", "values": [{"measurement": "reduction in OSM induced phosphorylation of STAT3 (pSTAT3)", "setting": "[1]", "result": "significant reduction in pSTAT3 at every treatment level"}, {"measurement": "effect on OSM induced pSTAT3 phosphorylation, initial tests", "setting": "[1]", "result": "inhibitory effect"}]}, {"smiles": "O=C(O)/C=C/c1cc(-c2ccc3c(c2)OCO3)c(-c2ccc3c(c2)OCO3)o1", "note": "[OSM-SMI-10B]", "values": [{"measurement": "reduction in OSM induced phosphorylation of STAT3 (pSTAT3)", "setting": "[1]", "result": "significant reduction in pSTAT3 at every treatment level"}, {"measurement": "effect on OSM induced pSTAT3 phosphorylation, initial tests", "setting": "[1]", "result": "inhibitory effect"}, {"measurement": "reduction in the OSM induction of IL-6 secretion", "setting": "[2]", "result": "large reduction"}, {"measurement": "reduction in the OSM induction of VEGF secretion", "setting": "[3]", "result": "large reduction"}]}, {"smiles": "O=C(/C=C/c1ccccc1)c1cccc(N2C(=O)c3ccc(Oc4ccc5c(c4)C(=O)N(c4cccc(C(=O)/C=C/c6ccccc6)c4)C5=O)cc3C2=O)c1", "note": "[OSM-SMI-23]", "values": [{"measurement": "reduction of the OSM induced increase in pSTAT3 expression", "setting": "[1]", "result": "more than about half"}]}, {"smiles": "CCOC(=O)/C=C/c1cc(-c2ccc3c(c2)OCO3)c(-c2ccc3c(c2)OCO3)o1", "note": "[OSM-SMI-10D]", "values": [{"measurement": "effect on OSM induced pSTAT3 phosphorylation, initial tests", "setting": "[1]", "result": "inhibitory effect"}]}, {"smiles": "C(=N\\Nc1ccccc1)/c1cc(-c2ccc3c(c2)OCO3)c(-c2ccc3c(c2)OCO3)o1", "note": "[OSM-SMI-10E]", "values": [{"measurement": "reduction in OSM induced phosphorylation of STAT3 (pSTAT3)", "setting": "[1]", "result": "significant reduction in pSTAT3 at every treatment level"}, {"measurement": "effect on OSM induced pSTAT3 phosphorylation, initial tests", "setting": "[1]", "result": "inhibitory effect"}]}, {"smiles": "O=C(O)/C(=C\\C=C\\c1ccccc1)c1coc(-c2nc(/C(=C/C=C/c3ccccc3)C(=O)O)co2)n1", "note": "[OSM-SMI-8]", "values": [{"measurement": "inhibition of OSM induced prostate tumor cell detachment", "setting": "prostate tumor cell", "result": "shown to inhibit"}, {"measurement": "inhibition of OSM induced phosphorylation of STAT3, JNK, ERK, and AKT", "setting": "STAT3, JNK, ERK, and AKT", "result": "shown to inhibit"}]}, {"smiles": "Cc1ccc(-c2cc(C(=O)Nc3cccc(C(=O)O)c3)c3cc(Br)ccc3n2)cc1C", "note": "[OSM-SMI-26]", "values": [{"measurement": "reduction of the OSM induced increase in pSTAT3 expression", "setting": "[1]", "result": "more than about half"}]}, {"smiles": "O=[N+]([O-])c1c(/C=N/Nc2ccccc2)oc(-c2ccc3c(c2)OCO3)c1-c1ccc2c(c1)OCO2", "note": "[OSM-SMI-10]", "values": [{"measurement": "inhibition of OSM induced prostate tumor cell detachment", "setting": "prostate tumor cell", "result": "shown to inhibit"}, {"measurement": "inhibition of OSM induced phosphorylation of STAT3, JNK, ERK, and AKT", "setting": "STAT3, JNK, ERK, and AKT", "result": "shown to inhibit"}]}]}
